Measured values published in ChEMBL document CHEMBL1134457, “Medicinal chemistry of neuronal voltage-gated sodium channel blockers” (J Med Chem, 2001).

Experiments:
Rattus norvegicus [1] = test: In vivo anticonvulsant activity to prevent seizures from maximum electroshock (MES) […]; assay type: functional
Rattus norvegicus [2] = organism: Rattus norvegicus; test: Neuroprotective activity was determined in the rat middle cerebral artery occlusion (MCAO) model of focal stroke; assay type: functional; settings: read-out: MED
[3] = Inhibition of veratridine-induced guanidine flux in cardiac voltage-gated sodium channel (veratridine block vs. Na release); assay type: functional, tissue-based, Rattus norvegicus, Heart
[4] = Inhibition of [3H]BTX binding to cardiac voltage-gated sodium channel; design: species or system Rattus norvegicus
[5] = Potency against voltage-gated calcium channel [45[Ca2+]]; assay type: functional
[6] = target: GABA-A receptor; anion channel; test: Anticonvulsant activity against gamma-aminobutyric acid receptor; assay type: functional
[7] = In vivo toxic dose in rotarod assay; assay type: ADME, organism-based; settings: rat
Gerbillinae = test: Neuroprotective activity was determined in the rat middle cerebral artery occlusion (MCAO) model of focal stroke in gerbil; assay type: functional; settings: read-out: MED
[8] = Effective dose was determined after intraperitoneal administration in the MES model; assay type: functional; settings: Rattus norvegicus, ip
[9] = Inhibition of [3H]-BTX binding to cardiac voltage-gated sodium channel; assay type: functional, Rattus norvegicus
Rattus norvegicus [10] = test: In vivo anticonvulsant activity to prevent seizures from maximum electroshock (MES) […] after (i.v.) administration; assay type: functional; settings: iv
Rattus norvegicus [11] = organism: Rattus norvegicus; test: Minimum effective dose (MED) was determined in the rat middle cerebral artery occlusion (MCAO) model of focal stroke […]; assay type: functional; settings: read-out: MED
Rattus norvegicus [12] = organism: Rattus norvegicus; test: Neuroprotective activity was determined in the rat middle cerebral artery occlusion (MCAO) model of focal stroke using rotarod assay; assay type: functional; settings: read-out: MED
Rattus norvegicus [13] = organism: Rattus norvegicus; test: Minimum effective dose was determined in the rat middle cerebral artery occlusion (MCAO) model of focal stroke […]; assay type: functional; settings: read-out: MED

## NC(=O)C12NC(Cc3ccccc31)c1ccccc12 (stereo unspecified)
Rattus norvegicus [1]
  ED50: 8.9 mg/kg

## OC(COc1ccccc1)CN1CCC(c2ccc(Oc3ccccc3)cc2)CC1 (stereo unspecified)
Rattus norvegicus [2]
  minimal effective dose: 3 mg/kg
[3]
  IC50: 0.22 µM

## CC1CCCC(C)N1CCCNC(=O)C(c1ccccc1)c1ccccc1 (stereo unspecified)
[4]
  IC50: 0.046 µM
[3]
  IC50: 5 µM

## NC(=O)NNCc1ccc(Oc2ccc(F)cc2)cc1
Rattus norvegicus [1]
  ED50: 4.2 mg/kg

## CCC(C)c1ccc(N2CCCN(c3ccc(C(C)CC)cc3)C2=N)cc1 (stereo unspecified)
[5]
  IC50: 0.39 µM
[3]
  IC50: 0.06 µM

## Nc1ncc(-c2cc(Cl)cc(Cl)c2Cl)c(N)n1
Rattus norvegicus [2]
  minimal effective dose: 20 mg/kg
[3]
  IC50: 1.6 µM

## Cc1cccc(C)c1N1C(=O)c2ccc(N)cc2C1=O
[4]
  IC50: 0.11 µM

## CCOc1ccccc1OCCN1CCC2(CC)c3cccc(O)c3CC1C2(C)C (stereo unspecified)
Rattus norvegicus [2]
  minimal effective dose: 2 mg/kg

## CCC1(Cc2ccccc2)CCCNC1=O (stereo unspecified)
[6]
  IC50: 487 µM

## COC(=O)c1[nH]cc(-c2ccc(Br)cc2)c1N1CCOCC1
[7]
  TD50: > 500 mg/kg
Rattus norvegicus [1]
  ED50: 2.5 mg/kg

## CC(NCc1ccc(OCc2cccc(F)c2)cc1)C(N)=O (stereo unspecified)
Rattus norvegicus [1]
  ED50: 4.1 mg/kg

## COc1ccc(/N=C(\N)Nc2ccc3c4c(cccc24)CC3)c2ccccc12
Gerbillinae
  minimal effective dose: 30 mg/kg
[3]
  IC50: 1.64 µM

## Cc1cccc(C)c1NC(=O)Nc1ccncc1
[4]
  IC50: 29 µM

## NC1CCc2c(-c3ccccc3)[nH]c3cccc1c23 (stereo unspecified)
[4]
  IC50: 1.1 µM
[3]
  IC50: 4.1 µM

## Cc1cccc(C)c1NC(=O)/C=C1/SCC(=O)N1C
Rattus norvegicus [1]
  ED50: 2.8 mg/kg
[4]
  IC50: 25 µM

## Nc1ncnnc1-c1cc(Cl)cc(Cl)c1Cl
[7]
  TD50: 40 mg/kg
Rattus norvegicus [1]
  ED50: 1.7 mg/kg

## COC(=O)[C@@H]1C(=O)C=C(Nc2ccc(Cl)cc2)C[C@H]1C
[7]
  TD50: 255 mg/kg
Rattus norvegicus [1]
  ED50: 26.2 mg/kg

## CN(C)CCOc1ccccc1-c1nc(-c2ccccc2)no1
Rattus norvegicus [1]
  ED50: 2.8 mg/kg

## Nc1nccc2c1nnn2Cc1c(F)cccc1F
Rattus norvegicus [1]
  ED50: 6.3 mg/kg

## Clc1ccc(-c2c[nH]nc2N2CCOCC2)cc1
[8]
  ED50: 47 mg/kg

## N=c1sc2ccccc2n1CCN1CCC(c2ccc(F)cc2)CC1
Rattus norvegicus [2]
  minimal effective dose: 16 mg/kg
Rattus norvegicus [1]
  ED50: 3.9 mg/kg

## Cc1ccc(-c2nc(C)c(CN3CCN(C(c4ccc(F)cc4)c4ccc(F)cc4)CC3)[nH]2)cc1
[4]
  IC50: 0.119 µM
[3]
  IC50: 0.3 µM

## COc1ccc(CCN(C)CCCC(C#N)(c2ccc(OC)c(OC)c2)C(C)C)cc1OC (stereo unspecified)
[4]
  IC50: 2.5 µM
[3]
  IC50: 2.5 µM

## C[C@H](C(N)=O)N1CCC23CCCC[C@@H]2[C@@H]1Cc1ccc(OCc2cccc(F)c2)cc13 (single isomer, unassigned)
Rattus norvegicus [1]
  ED50: 18.1 mg/kg

## Cc1cccc(C)c1NC(=O)c1ccc(N)cc1 [AMELTOLIDE]
Rattus norvegicus [1]
  ED50: 13 mg/kg

## CCCN(c1ccncc1)n1ccc2ccccc21 [BESIPIRDINE]
[4]
  IC50: 5.5 µM
[3]
  IC50: 30 µM

## NC(=O)N1c2ccccc2C=Cc2ccccc21 [CARBAMAZEPINE]
[7]
  TD50: 27.4 mg/kg
Rattus norvegicus [2]
  minimal effective dose: 2 mg/kg
Rattus norvegicus [1]
  ED50: 3.4 mg/kg
[4]
  IC50: 131 µM
[3]
  IC50: 30 µM

## COc1ccccc1OCCNCC(O)COc1cccc2[nH]c3ccccc3c12 (stereo unspecified) [CARVEDILOL]
[4]
  IC50: 1.7 µM
[3]
  IC50: 0.306 µM

## Nc1cnc(-c2cc(Cl)cc(Cl)c2Cl)c(N)n1 [ELPETRIGINE]
[7]
  TD50: 18.8 mg/kg
Rattus norvegicus [1]
  ED50: 1.13 mg/kg

## Cc1nc(OCCCCCN2CCCCC2)cc(-c2ccc(F)cc2)n1 [ENECADIN]
Rattus norvegicus [2]
  minimal effective dose: 0.5 mg/kg
[9]
  IC50: 1 µM
[3]
  IC50: 7.7 µM

## Fc1ccc(C(c2ccc(F)cc2)N2CCN(C/C=C/c3ccccc3)CC2)cc1 [FLUNARIZINE]
[4]
  IC50: 0.35 µM
[3]
  IC50: 0.12 µM

## Nc1nnc(-c2cccc(Cl)c2Cl)c(N)n1 [LAMOTRIGINE]
[7]
  TD50: 84 mg/kg
Rattus norvegicus [2]
  minimal effective dose: 20 mg/kg
Rattus norvegicus [1]
  ED50: 2.2 mg/kg
[4]
  IC50: 114 µM
[3]
  IC50: 21 µM

## CCN(CC)CC(=O)Nc1c(C)cccc1C [LIDOCAINE]
[7]
  TD50: 41 mg/kg
Rattus norvegicus [1]
  ED50: 87 mg/kg
[4]
  IC50: 113 µM
[3]
  IC50: 97 µM

## COc1ccc(CN2CCN(C(c3ccc(F)cc3)c3ccc(F)cc3)CC2)c(OC)c1OC [LOMERIZINE]
[4]
  IC50: 0.026 µM

## CN(c1nc2ccccc2s1)C1CCN(C[C@H](O)COc2ccc(F)c(F)c2)CC1 [LUBELUZOLE]
Rattus norvegicus [2]
  minimal effective dose: 0.3 mg/kg
[4]
  IC50: 0.28 µM

## Cc1cccc(C)c1OCC(C)N (stereo unspecified) [MEXILETINE]
Rattus norvegicus [1]
  ED50: 2 mg/kg

## O=C1NC(=O)C(c2ccccc2)(c2ccccc2)N1 [PHENYTOIN]
Rattus norvegicus [2]
  minimal effective dose: 200 mg/kg
Rattus norvegicus [10]
  ED50: 10 mg/kg
[4]
  IC50: 40 µM
[3]
  IC50: 21 µM

## CC(Cc1ccccc1)(NC(=O)CN)c1ccccc1 (stereo unspecified) [REMACEMIDE]
Rattus norvegicus [2]
  minimal effective dose: 10 mg/kg
Rattus norvegicus [11]
  minimal effective dose: 100 mg/kg

## Nc1nc2ccc(OC(F)(F)F)cc2s1 [RILUZOLE]
Rattus norvegicus [2]
  minimal effective dose: 4 mg/kg
Rattus norvegicus [12]
  minimal effective dose: 30 mg/kg
[3]
  IC50: 4 µM

## CN1CCN(c2ncc(-c3cc(Cl)cc(Cl)c3Cl)c(N)n2)CC1 [SIPATRIGINE]
Rattus norvegicus [13]
  minimal effective dose: 60 mg/kg
Rattus norvegicus [2]
  minimal effective dose: 30 mg/kg
[3]
  IC50: 5.3 µM

## CC1(C)O[C@@H]2[C@@H](CO[C@@]3(COS(N)(=O)=O)OC(C)(C)O[C@@H]23)O1 [TOPIRAMATE]
Rattus norvegicus [1]
  ED50: 39 mg/kg

## NS(=O)(=O)Cc1noc2ccccc12 [ZONISAMIDE]
Rattus norvegicus [2]
  minimal effective dose: 100 mg/kg
